Reference: ChEMBL document CHEMBL1147316, “Turbinaric acid, a cytotoxic secosqualene carboxylic acid from the brown alga Turbinaria ornata” (J Nat Prod, 1989)
The source made the active and inactive calls. The calls are words filed in the database; no cut-off is given here.

Key:
[1] = test system: Melanoma tumor cell line; assay: Cytotoxicity against mouse melanoma cells at 26.6 ug/mL; format: functional, cell-based
[2] = test system: Cancer cell lines; assay: Cytotoxicity against human colon cancer cells at 12.5 ug/mL; format: functional, cell-based

Compound: CC(C)=CCC/C(C)=C/CC/C(C)=C/CC/C=C(\C)CC/C=C(\C)CCC(=O)O
- Activity [1]: Active
- Activity [2]: Active
